Measurements reported in PMC9471462, “The nematode serotonin-gated chloride channel MOD-1: A novel target for anthelmintic therapy” (The Journal of Biological Chemistry, 2022).

Assays:
[1] = target: T1, MOD-1 (Caenorhabditis elegans, UniProt Q9GQ00); assay: cell-based
[2] = target: T1, MOD-1; assay: whole-cell patch clamp of homomeric MOD-1 expressed in BOSC-23 cells, agonist concentration-response (efficacy about […]); format: cell-based
[3] = target: T1, MOD-1; assay: whole-cell patch clamp in BOSC-23 cells, preincubation; weak partial reduction of 5-HT peak current at […]; format: cell-based
[4] = target: T1, MOD-1; assay: whole-cell patch clamp in BOSC-23 cells, inhibition of […] 5-HT currents after […] s preincubation; format: cell-based

T1 sequence (Q9GQ00 21-489): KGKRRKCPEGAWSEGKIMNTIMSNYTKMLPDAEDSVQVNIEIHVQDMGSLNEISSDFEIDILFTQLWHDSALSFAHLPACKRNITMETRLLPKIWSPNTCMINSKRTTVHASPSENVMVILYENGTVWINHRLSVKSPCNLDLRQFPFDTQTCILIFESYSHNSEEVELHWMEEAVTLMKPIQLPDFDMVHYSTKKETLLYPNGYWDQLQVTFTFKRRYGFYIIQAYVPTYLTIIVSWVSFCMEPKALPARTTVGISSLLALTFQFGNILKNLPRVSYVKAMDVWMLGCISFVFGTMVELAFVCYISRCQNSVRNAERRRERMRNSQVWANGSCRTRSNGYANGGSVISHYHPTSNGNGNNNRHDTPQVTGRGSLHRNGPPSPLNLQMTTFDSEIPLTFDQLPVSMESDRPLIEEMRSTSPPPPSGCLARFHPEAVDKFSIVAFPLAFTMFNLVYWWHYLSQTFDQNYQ

Work on C1CNCCN1 [PZE, piperazine] yielded an IC50 [1] of 113 ± 29 µM.

NCCc1c[nH]c2ccccc12 [Tryp, tryptamine] was tested, and the EC50 [2] was 47 ± 11 µM.

O=C(O)C1=CCNCC1 [isoguvacine] was tested, and the inhibition at 1000 µM [3] was 23 ± 14%.

Molecule NCc1cc(=O)[nH]o1 [muscimol] has an IC50 [4] of 249 ± 160 µM.
